According to US11312719B2, “9-substituted amino triazolo quinazoline derivatives as adenosine receptor antagonists, pharmaceutical compositions and their use” (Merck Sharp & Dohme Corp., priority 2018, dated 2022):

Tests used:
[1] = target: human A2b adenosine receptor (Homo sapiens (Human), UniProt P29275); assay: A2b radioligand filtration binding assay; details: for IC50: membranes from HEK293 cells expressing human A2b receptor
Protocol: Measurement of A2b Binding Affinity
The reported affinity of the compounds of the invention for the human A2b adenosine receptor was determined experimentally using a radioligand filtration binding assay. This assay measures the amount of binding of a tritiated proprietary A2b receptor antagonist, in the presence and absence of a compound of the invention, to membranes made from HEK293 cells recombinantly expressing the human A2b adenosine receptor (Perkin Elmer, Cat. No. ES-013-C).
148 μL (135 μg/mL) membranes and 2 μL test compounds were transferred to individual wells of a 96-well polypropylene assay plate and incubated for 15 to 30 minutes at room temperature with agitation. Tritiated radioligand was diluted to a concentration of 14 nM in assay buffer (phosphate buffered saline without Magnesium and Calcium, pH 7.4; GE Healthcare Life Sciences, Cat. No. SH30256.01) and then 50 μL of the solution were transferred to each well of the assay plate. To define total and non-specific binding, wells containing 1% DMSO and 20 μM N-ethylcarboxamidoadenosine (Tocris Bioscience, Cat. No. 1691) respectively, were also included. The wells of the assay plate were incubated at room temperature for 60 minutes with agitation, then filtered using a FilterMate Harvester® (Perkin Elmer) or similar equipment through a UniFilter-96® PEI coated plate (Perkin Elmer Cat. No. 6005274 or 6005277). Filtering was achieved by aspirating the contents of the assay plate for 5 seconds, then washing and aspirating the contents three times with ice-cooled wash buffer (assay buffer supplemented with 0.0025% Brij58) and allowing the vacuum manifold to dry the plate for 30 seconds. The filter plate was incubated for at least 1 hour at 55° C. and allowed to dry. The bottom of the filter plate was then sealed with backing tape. 40 μL Ultima Gold™ (Perkin Elmer, Cat. No. 6013329) was added to each well of the filter plate and the top of the plate was sealed with TopSeal-A PLUS® clear plate seal (Perkin Elmer, Cat. No. 6050185). The plates were then incubated for at least 20 minutes, and then the amount of radioactivity remaining in each well was determined using a TopCount® (Perkin Elmer) scintillation counter. After normalization to total and non-specific binding, the percent effect at each compound concentration was calculated. The plot of percent effect versus the log of compound concentration was analyzed electronically using a 4-parameter logistic fit based on the Levenberg-Marquardt algorithm to generate IC50 values.

[2] = target: human A2a adenosine receptor (Homo sapiens (Human), UniProt P29274); assay: A2a receptor affinity radioligand binding assay ([3H] SCH58261); details: membranes from HEK293 or CHO cells expressing human A2a receptor
Chain of human A2a adenosine receptor (P29274 whole entry): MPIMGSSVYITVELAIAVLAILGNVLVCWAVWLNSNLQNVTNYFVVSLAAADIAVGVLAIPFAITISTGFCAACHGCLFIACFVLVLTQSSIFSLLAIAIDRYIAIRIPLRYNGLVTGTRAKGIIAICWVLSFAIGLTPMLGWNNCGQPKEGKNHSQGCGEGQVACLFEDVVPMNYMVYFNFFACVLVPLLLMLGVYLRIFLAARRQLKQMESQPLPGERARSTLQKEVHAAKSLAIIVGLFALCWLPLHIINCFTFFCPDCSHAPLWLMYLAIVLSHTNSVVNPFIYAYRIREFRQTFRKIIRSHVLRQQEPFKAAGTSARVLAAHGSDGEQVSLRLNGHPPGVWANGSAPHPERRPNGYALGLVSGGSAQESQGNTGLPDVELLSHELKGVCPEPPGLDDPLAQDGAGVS
Protocol: The A2a receptor affinity binding assay measured the amount of binding of a tritiated ligand with high affinity for the A2a adenosine receptor to membranes made from HEK293 or CHO cells recombinantly expressing the human A2a adenosine receptor, in the presence of varying concentrations of a compound of the invention.
Measurement of A2a Binding Affinity Using Radioligand Binding
148 μL (5 μg/mL) membranes (Perkin Elmer, Cat. No. RBHA2aM400UA) and 2 μL compounds of the invention to be tested (test compound) were transferred to individual wells of a 96-well polypropylene assay plate and incubated for 15 to 30 minutes at room temperature. [^3H] SCH58261 ((7-(2-phenylethyl)-5-amino-2-(2-furyl)-pyrazolo-[4,3-e]-1,2,4-triazolo[1,5-c]pyrimidine)) was diluted in assay buffer (50 mM Tris pH 7.4, 10 mM MgCl2, 0.005% Tween20) to a concentration of 4 nM and 50 μL transferred to each well of the assay plate. To define total and non-specific binding, wells containing 1% DMSO and 1 μM ZM241385 (Tocris Bioscience, Cat. No. 1036) respectively, were also included. The assay plate was incubated at room temperature for 60 minutes with agitation. Using a FilterMate Harvester® (Perkin Elmer), the contents of the assay plate were filtered through a UniFilter-96® PEI coated plate (Perkin Elmer Cat. No. 6005274 or 6005277). Filtering was achieved by aspirating the contents of the assay plate for 5 seconds, then washing and aspirating the contents three times with ice-cooled wash buffer (50 mM Tris-HCl pH 7.4, 150 mM NaCl) and allowing the vacuum manifold to dry the plate for 30 seconds. The filter plate was incubated for at least 1 hour at 55° C., and allowed to dry. The bottom of the filter plate was sealed with backing tape. 40 μL Ultima Gold™ (Perkin Elmer, Cat. No. 6013329) was added to each well of the filter plate and the top of the plate was sealed with TopSeal-A PLUS® clear plate seal (Perkin Elmer, Cat. No. 6050185). The plate was incubated for at least 20 minutes, and then the amount of radioactivity remaining in each well was determined using a TopCount® (Perkin Elmer) scintillation counter. After normalization to total and non-specific binding, the percent effect at each compound concentration was calculated. The plot of percent effect versus the log of compound concentration was analyzed electronically using a 4-parameter logistic fit based on the Levenberg-Marquardt algorithm to generate IC50 values.

Chain of human A2b adenosine receptor (P29275 whole entry): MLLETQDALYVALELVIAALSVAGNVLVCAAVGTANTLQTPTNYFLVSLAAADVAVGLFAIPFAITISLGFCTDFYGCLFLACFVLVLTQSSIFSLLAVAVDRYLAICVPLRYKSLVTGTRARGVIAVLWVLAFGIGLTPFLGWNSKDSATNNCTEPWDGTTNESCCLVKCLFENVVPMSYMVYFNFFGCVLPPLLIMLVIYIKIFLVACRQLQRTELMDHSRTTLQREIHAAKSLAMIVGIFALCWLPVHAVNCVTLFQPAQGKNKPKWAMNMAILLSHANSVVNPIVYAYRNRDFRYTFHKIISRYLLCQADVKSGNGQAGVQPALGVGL

SMILES	IC50 [1] [nM]	IC50 [2] [nM]	A2B binding % Inh. @ 10000 nM [1] [% Inh.]
COc1cc(F)cc2c1nc(N)n1nc([C@@H]3C[C@@H](F)CN(c4cnn(CC(C)(C)O)c4)C3)nc21 (single isomer, unassigned) [Example 74, 1-(4-((3R,5R or 3S,5S)-3-(5-amino-9-fluoro-7-methoxy-[1,2,4]triazolo[1,5-c]quinazolin-2-yl)-5-fluoropiperidin-1-yl)-1H-pyrazol-1-yl)-2-methylpropan-2-ol]	153	0.9	–
COc1cc(F)cc2c1nc(N)n1nc([C@H]3C[C@H](F)CN(c4cnn(CC(C)(C)O)c4)C3)nc21 (single isomer, unassigned) [Example 75, 1-(4-((3S,5S or 3R,5R)-3-(5-amino-9-fluoro-7-methoxy-[1,2,4]triazolo[1,5-c]quinazolin-2-yl)-5-fluoropiperidin-1-yl)-1H-pyrazol-1-yl)-2-methylpropan-2-ol]	–	56.9	54
COc1cc(F)cc2c1nc(N)n1nc(C3CC(F)CN(c4cn(CC(C)(C)O)nc4C)C3)nc21 (single isomer, unassigned) [Example 76, 1-(4-((3R,5R or 3S,5S)-3-(5-amino-9-fluoro-7-methoxy-[1,2,4]triazolo[1,5-c]quinazolin-2-yl)-5-fluoropiperidin-1-yl)-3-methyl-1H-pyrazol-1-yl)-2-methylpropan-2-ol]	–	256	34
COc1cc(F)cc2c1nc(N)n1nc(C3CC(F)CN(c4cn(CC(C)(C)O)nc4C)C3)nc21 (single isomer, unassigned) [Example 77, 1-(4-((3S,5S or 3R,5R)-3-(5-amino-9-fluoro-7-methoxy-[1,2,4]triazolo[1,5-c]quinazolin-2-yl)-5-fluoropiperidin-1-yl)-3-methyl-1H-pyrazol-1-yl)-2-methylpropan-2-ol]	108	0.4	–
COc1cc(F)cc2c1nc(N)n1nc(C3CC(F)CN(c4cnn(CC5(O)CCC5)c4)C3)nc21 (single isomer, unassigned) [Example 78, 1-(4-((3R,5R or 3S,5S)-3-(5-amino-9-fluoro-7-methoxy-[1,2,4]triazolo[1,5-c]quinazolin-2-yl)-5-fluoropiperidin-1-yl)-1H-pyrazol-1-yl)methyl)cyclobutan-1-ol]	234	0.9	–
COc1cc(F)cc2c1nc(N)n1nc(C3CC(F)CN(c4cnn(CC5(O)CCC5)c4)C3)nc21 (single isomer, unassigned) [Example 79, 1-(4-((3S,5S or 3R,5R)-3-(5-amino-9-fluoro-7-methoxy-[1,2,4]triazolo[1,5-c]quinazolin-2-yl)-5-fluoropiperidin-1-yl)-1H-pyrazol-1-yl)methyl)cyclobutan-1-ol]	3140	16	–
COc1cc2nc(N)n3nc([C@@H]4C[C@@H](F)CN(c5cnn(CC(C)(C)O)c5)C4)nc3c2cc1F (single isomer, unassigned) [Example 80, 1-(4-((3R,5R or 3S,5S)-3-(5-amino-9-fluoro-8-methoxy-[1,2,4]triazolo[1,5-c]quinazolin-2-yl)-5-fluoropiperidin-1-yl)-1H-pyrazol-1-yl)-2-methylpropan-2-ol]	404	11.6	–
COc1cc2nc(N)n3nc([C@H]4C[C@H](F)CN(c5cnn(CC(C)(C)O)c5)C4)nc3c2cc1F (single isomer, unassigned) [Example 81, 1-(4-((3S,5S or 3R,5R)-3-(5-amino-9-fluoro-8-methoxy-[1,2,4]triazolo[1,5-c]quinazolin-2-yl)-5-fluoropiperidin-1-yl)-1H-pyrazol-1-yl)-2-methylpropan-2-ol]	6580	121	–
COc1cc2nc(N)n3nc([C@@H]4CCCN(c5cnn([C@@H]6CCC[C@@]6(C)O)c5)C4)nc3c2cc1F (single isomer, unassigned) [Example 82, (1R or 1S,2R or 2S)-2-(4-((R)-3-(5-amino-9-fluoro-8-methoxy-[1,2,4]triazolo[1,5-c]quinazolin-2-yl)piperidin-1-yl)-1H-pyrazol-1-yl)-1-methylcyclopentan-1-ol]	63	4.9	–
COc1cc2nc(N)n3nc([C@@H]4CCCN(c5cnn([C@H]6CCC[C@]6(C)O)c5)C4)nc3c2cc1F (single isomer, unassigned) [Example 83, (1S or 1R,2S or 2R)-2-(4-((R)-3-(5-amino-9-fluoro-8-methoxy-[1,2,4]triazolo[1,5-c]quinazolin-2-yl)piperidin-1-yl)-1H-pyrazol-1-yl)-1-methylcyclopentan-1-ol]	113	2.7	–

The next lines start with the values.

IC50 [1] [nM]	IC50 [2] [nM]	A2B binding % Inh. @ 10000 nM [1] [% Inh.]	SMILES
117	2.3	–	COc1cc2nc(N)n3nc([C@@H]4CCCN(c5cnn(C6CCCC6O)c5)C4)nc3c2cc1F (single isomer, unassigned) [Example 84, (1R or 1S,2R or 2S)-2-(4-((R)-3-(5-amino-9-fluoro-8-methoxy-[1,2,4]triazolo[1,5-c]quinazolin-2-yl)piperidin-1-yl)-1H-pyrazol-1-yl)cyclopentan-1-ol]
192	5.2	–	COc1cc2nc(N)n3nc([C@@H]4CCCN(c5cnn(C6CCCC6O)c5)C4)nc3c2cc1F (single isomer, unassigned) [Example 85, (1S or 1R,2S or 2R)-2-(4-((R)-3-(5-amino-9-fluoro-8-methoxy-[1,2,4]triazolo[1,5-c]quinazolin-2-yl)piperidin-1-yl)-1H-pyrazol-1-yl)cyclopentan-1-ol]
165	0.3	–	COc1cc(F)cc2c1nc(N)n1nc([C@@H]3CCCN(c4cn(C(C)C(C)(C)O)nc4C)C3)nc21 (single isomer, unassigned) [Example 86, (S or R)-3-(4-((R)-3-(5-amino-9-fluoro-7-methoxy-[1,2,4]triazolo[1,5-c]quinazolin-2-yl)piperidin-1-yl)-3-methyl-1H-pyrazol-1-yl)-2-methylbutan-2-ol]
134	0.4	–	COc1cc(F)cc2c1nc(N)n1nc([C@@H]3CCCN(c4cn(C(C)C(C)(C)O)nc4C)C3)nc21 (single isomer, unassigned) [Example 87, (R or S)-3-(4-((R)-3-(5-amino-9-fluoro-7-methoxy-[1,2,4]triazolo[1,5-c]quinazolin-2-yl)piperidin-1-yl)-3-methyl-1H-pyrazol-1-yl)-2-methylbutan-2-ol]
1.8	0.1	–	COc1cc2nc(N)n3nc(C4CCC(C)N(c5cnn(C6CCCC6O)c5)C4)nc3c2cc1F (single isomer, unassigned) [Example 88, (1R or 1S,2R or 2S)-2-(4-((2S,5R or 2R,5S)-5-(5-amino-9-fluoro-8-methoxy-[1,2,4]triazolo[1,5-c]quinazolin-2-yl)-2-methylpiperidin-1-yl)-1H-pyrazol-1-yl)cyclopentan-1-ol]
